Source: patent US11999957B2, “Method for enhancing vanillin resistance of Saccharomyces cerevisiae by knocking out SNG1 gene” (QILU UNIVERSITY OF TECHNOLOGY, priority 2020, dated 2024)

Columns and labels:
Saccharomyces cerevisiae = details: 0.9 g/L vanillin; extended from 2 hours without vanillin; cited from earlier work
wild-type BY4741 strain = assay: Shake-flask fermentation under vanillin stress (OD600 growth); assay type: cell-based, Saccharomyces cerevisiae; details: wild-type BY4741, SC medium containing 6 mmol/L of vanillin, 30° C., 200 rpm
Experimental: (§1) A single colony of the sng1Δ mutant was picked, transferred to 1-2 mL of a SC medium and cultured at 30° C. and 200 rpm for about 24 h. The cell suspension was transferred to 20 mL of fresh medium at an initial OD600 of 0.2 and cultured at 30° C. and 200 rpm overnight to the mid log phase for secondary activation. Then the cell culture, at an initial OD600 of 0.2, was transferred to 40 mL of a SC medium containing 6 mmol/L of vanillin and cultured at 30° C. and 200 rpm under shaking, where the OD600 was regularly measured.
(§2) The maximum specific growth rate was obtained by calculating a […] regression slope of ln(OD600) versus time in the logarithmic growth phase.
Similarly, the specific consumption rate of vanillin in the wild-type BY4741 strain was calculated to be 0.035 g g^−1 h^−1 according to the above method (FIG. 4).

sng1Δ mutant [1] = assay: Growth on YEPD plate containing vanillin (spot dilution test); assay type: cell-based, Saccharomyces cerevisiae; details: YEPD plate with 6 mmol/L of vanillin, 30° C., 1-3 days, sng1Δ mutant vs control strain
Experimental: The sng1Δ mutant obtained above was cultured on a YEPD plate containing 6 mmol/L of vanillin to observe its growth status. Specifically, the sng1Δ mutant was inoculated to 1-2 mL of a liquid YEPD medium and cultured at 30° C. overnight to logarithmic growth phase. Then the mutant cells were transferred to 5 mL of fresh medium at an initial OD600 of 0.2, cultured overnight and centrifuged. The cells were collected, washed with 1 mL of sterile water three times and centrifuged at 8,000 r/min. The cells were again suspended with sterile water and placed at 30° C. for 9 h to prepare resting cells, and during the preparation, the medium was prepared, poured to a plate and naturally dried. The cell suspension was adjusted to OD600 of 1.0 and subjected to 10-fold serial dilution, and 4 μL of the suspension at each dilution was dropped on the plate, cultured at 30° C. for 1-3 days and photographed to observe the colony growth. The control strain was tested in the same way for the vanillin resistance.

sng1Δ mutant [2] = assay: Shake-flask fermentation under vanillin stress (OD600 growth); assay type: cell-based, Saccharomyces cerevisiae
Experimental: as §1, §2

## COc1cc(C=O)ccc1O [vanillin]
Saccharomyces cerevisiae
  delay period (lag) of growth: about 24 hours
wild-type BY4741 strain
  maximum specific growth rate: 0.132 h⁻¹
sng1Δ mutant [1]
  growth status on plate under vanillin stress: superior growth status to the control strain
sng1Δ mutant [2]; sng1Δ mutant, SC medium containing 6 mmol/L of vanillin, aerobic, shaking, 30° C., 200 rpm
  maximum specific growth rate: 0.225 h⁻¹
sng1Δ mutant [2]; under vanillin stress (6 mmol/L), sng1Δ mutant vs BY4741
  improvement of maximum specific growth rate of sng1Δ mutant compared to the control strain: 70%
